These are literature values, as cited in patent US5910307A, “Process of extracting and purifying biologically effective ingredients from combined medicinal plants and their extract composition” (priority 1996, dated 1999).

Data set [1] concerns chronic rheumatoid arthritis induced by Mycobacterium butyricum. Particulars: literature.
The test system of data set [2] is biosynthesis of prostacyclin. The settings on record: literature.

Turning to `CC1(C)CC[C@]2(C(=O)O)CC[C@]3(C)C(=CC[C@@H]4[C@@]5(C)CC[C@H](O)C(C)(C)[C@@H]5CC[C@]43C)[C@@H]2C1` [oleanolic acid], in data set [1], the “anti-inflammatory and analgesic effects” value was “remarkable anti-inflammatory and analgesic effects”; the “effect on chronic rheumatoid arthritis induced by Mycobacterium butyricum” value was “effective”.

On to `O=C(/C=C/c1ccc(O)c(O)c1)O[C@H](Cc1ccc(O)c(O)c1)C(=O)O` [rosmarinic acid], for which, in data set [2], the “biosynthesis of prostacyclin generated in the metabolism of arachidonic acid” value is listed as “inhibit”.
